We go through 32 compounds from ChEMBL document CHEMBL2021864, “Investigating the activity of quinine analogues versus chloroquine resistant Plasmodium falciparum” (Bioorg Med Chem, 2012).

pIC50: −log10 of the molar value.

A word on the pIC50: it is the negative decadic logarithm of the IC50, by convention in mol/L.

For assay [1], the system named is Plasmodium falciparum. As to the kind of experiment: microbe, parasite or virus in culture. The assay is classed as functional, organism-based. The settings on record: HB3, 72 h.
Description: Antimalarial activity against chloroquine sensitive Plasmodium falciparum HB3 after 72 hrs by SYBP Green I dye staining
The subject of assay [2] is Plasmodium falciparum. As to the kind of experiment: microbe, parasite or virus in culture. It counts as functional, organism-based. The settings on record: Dd2, 72 h.
Description: Antimalarial activity against chloroquine resistant Plasmodium falciparum Dd2 after 72 hrs by SYBP Green I dye staining
Assay [3] in a line: Inhibition of beta-hematin formation after 16 hrs at pH 5.2 by microplate reader. It counts as functional.
The nature of assay [4]: Inhibition of beta-hematin formation after 16 hrs at pH 5.6 by microplate reader. The assay is classed as functional.
Assay [5] deals with Plasmodium falciparum. As to the kind of experiment: Ratio of compound IC50 to quinidine IC50 for chloroquine sensitive Plasmodium falciparum HB3. It counts as functional.
For assay [6], the system named is Plasmodium falciparum. As to the kind of experiment: Ratio of compound IC50 to quinidine IC50 for […] Plasmodium falciparum Dd2. The assay is classed as functional.
For assay [7], the system named is Plasmodium falciparum. As to the kind of experiment: Ratio of compound IC50 to cinchonine IC50 for chloroquine sensitive Plasmodium falciparum HB3. The assay is classed as functional.

For the compound `COc1ccc2nccc([C@@H](O)[C@H]3C[C@H]4CCN3C[C@@H]4/C=C/c3ccccc3)c2c1`, the pIC50 in the assay with Plasmodium falciparum [1] and with Plasmodium falciparum [2] was < 6.30 throughout.
With `COc1ccc2nccc([C@@H](O)[C@H]3C[C@H]4CCN3C[C@@H]4/C=C/c3ccc(C)cc3)c2c1`, the negative logarithm of the IC50 (pIC50) in the assay on Plasmodium falciparum [1] and in the assay on Plasmodium falciparum [2] was < 6.30 in each case.
Take `COc1ccc2nccc([C@@H](O)[C@H]3C[C@H]4CCN3C[C@@H]4/C=C/c3ccccc3C)c2c1`: the pIC50 in the assay on Plasmodium falciparum [1] and in the assay on Plasmodium falciparum [2] was < 6.30 in each case.
Consider `COc1ccc2nccc([C@@H](O)[C@H]3C[C@H]4CCN3C[C@@H]4/C=C/c3ccc4ccccc4c3)c2c1`, for which the pIC50 in the assay with Plasmodium falciparum [1] was < 6.30; with Plasmodium falciparum [2], < 5.82.
Take `COc1ccc2nccc([C@@H](O)[C@H]3C[C@H]4CCN3C[C@@H]4/C=C/c3cccc4ccccc34)c2c1`: the pIC50 in the assay with Plasmodium falciparum [1] and in the assay with Plasmodium falciparum [2] was < 6.30 throughout.
In the case of `COc1ccc2nccc([C@@H](O)[C@H]3C[C@H]4CCN3C[C@@H]4/C=C/c3ccc(-c4ccccc4)cc3)c2c1`, the negative logarithm of the IC50 (pIC50) with Plasmodium falciparum [1] is 6.89; in the assay on Plasmodium falciparum [2], 6.74.
Consider `CCOC(=O)c1ccc(/C=C/[C@H]2CN3CC[C@@H]2C[C@@H]3[C@H](O)c2ccnc3ccc(OC)cc23)cc1`, for which the pIC50 in the assay with Plasmodium falciparum [1] was 6.37; in the assay on Plasmodium falciparum [2], 6.50; in assay [3] it was 4.27; in assay [4], 4.40.
Take `COc1ccc2nccc([C@@H](O)[C@H]3C[C@H]4CCN3C[C@@H]4/C=C/c3ccc(F)cc3)c2c1`: the pIC50 in the assay on Plasmodium falciparum [1] is < 6.30; with Plasmodium falciparum [2], < 6.30; in assay [3], 4.36; in assay [4], 4.64.
As for `COc1ccc2nccc([C@@H](O)[C@H]3C[C@H]4CCN3C[C@@H]4/C=C/c3cccc(F)c3)c2c1`, the negative logarithm of the IC50 (pIC50) is 6.84 in the assay with Plasmodium falciparum [1] and 6.13 with Plasmodium falciparum [2].
On the same counts, the results for `COc1ccc2nccc([C@@H](O)[C@H]3C[C@H]4CCN3C[C@@H]4/C=C/c3ccc(Cl)cc3)c2c1` are < 6.30 and < 6.30.
For the compound `COc1ccc2nccc([C@@H](O)[C@H]3C[C@H]4CCN3C[C@@H]4/C=C/c3ccc(C(F)(F)F)cc3)c2c1`, the negative logarithm of the IC50 (pIC50) with Plasmodium falciparum [1] is 6.37; in the assay on Plasmodium falciparum [2] it was 6.31; in assay [3], 4.00; in assay [4], 4.34.
As for `COc1ccc2nccc([C@@H](O)[C@H]3C[C@H]4CCN3C[C@@H]4/C=C/c3cccc(C(F)(F)F)c3)c2c1`, the pIC50 was < 6.30 with Plasmodium falciparum [1], < 6.30 in the assay on Plasmodium falciparum [2] and 4.28 in assay [3].
With `COc1ccc(/C=C/[C@H]2CN3CC[C@@H]2C[C@@H]3[C@H](O)c2ccnc3ccc(OC)cc23)cc1`, the pIC50 in the assay with Plasmodium falciparum [1] and in the assay on Plasmodium falciparum [2] was < 6.30 in each case.
As for `COc1cccc(/C=C/[C@H]2CN3CC[C@@H]2C[C@@H]3[C@H](O)c2ccnc3ccc(OC)cc23)c1`, the negative logarithm of the IC50 (pIC50) in the assay on Plasmodium falciparum [1] and with Plasmodium falciparum [2] was < 6.30 in each case.
`COc1ccc2nccc([C@@H](O)[C@H]3C[C@H]4CCN3C[C@@H]4/C=C/c3ccc4c(c3)OCO4)c2c1`: the pIC50 in the assay on Plasmodium falciparum [1] and in the assay on Plasmodium falciparum [2] was < 6.30 each time.
For `O[C@H](c1ccnc2ccccc12)[C@@H]1C[C@@H]2CCN1C[C@@H]2/C=C/c1ccc(-c2ccccc2)cc1`, the negative-log IC50 (pIC50) in the assay on Plasmodium falciparum [1] was 6.90; in the assay on Plasmodium falciparum [2], 6.75; in assay [4] it was 3.94.
Regarding `CCOC(=O)c1ccc(/C=C/[C@H]2CN3CC[C@H]2C[C@H]3[C@H](O)c2ccnc3ccccc23)cc1`, the negative logarithm of the IC50 (pIC50) is 6.23 in the assay with Plasmodium falciparum [1] and 6.70 with Plasmodium falciparum [2].
On the same counts, the results for `O[C@H](c1ccnc2ccccc12)[C@@H]1C[C@@H]2CCN1C[C@@H]2/C=C/c1ccc(C(F)(F)F)cc1` are 6.53 and 6.65.
With `O[C@H](c1ccnc2ccccc12)[C@@H]1C[C@@H]2CCN1C[C@@H]2/C=C/c1cccc(C(F)(F)F)c1`, the pIC50 was 6.40 with Plasmodium falciparum [1], 6.03 with Plasmodium falciparum [2], 4.12 in assay [3] and 4.15 in assay [4].
With `COc1ccc2nccc([C@H](O)[C@H]3C[C@@H]4CCN3C[C@@H]4/C=C/c3ccc(-c4ccccc4)cc3)c2c1`, the pIC50 in the assay on Plasmodium falciparum [1] is 6.91; in the assay on Plasmodium falciparum [2] it was 6.69. The “Ratio IC50” value with Plasmodium falciparum [5] is reported as 6; with Plasmodium falciparum [6] it was 2.
With `CCOC(=O)c1ccc(/C=C/[C@H]2CN3CC[C@H]2C[C@@H]3[C@@H](O)c2ccnc3ccc(OC)cc23)cc1`, the negative logarithm of the IC50 (pIC50) is 6.92 in the assay with Plasmodium falciparum [1], 6.69 in the assay with Plasmodium falciparum [2], 4.06 in assay [3] and 4.40 in assay [4]. In addition, the “Ratio IC50” value was 6 in the assay on Plasmodium falciparum [5] and 2 in the assay on Plasmodium falciparum [6].
Turning to `COc1ccc2nccc([C@H](O)[C@H]3C[C@@H]4CCN3C[C@@H]4/C=C/c3ccc(C(F)(F)F)cc3)c2c1`, the pIC50 with Plasmodium falciparum [1] was 6.78; in the assay on Plasmodium falciparum [2] it was 5.63.
`COc1ccc2nccc([C@H](O)[C@H]3C[C@@H]4CCN3C[C@@H]4/C=C/c3cccc(C(F)(F)F)c3)c2c1`: the pIC50 is 7.01 in the assay on Plasmodium falciparum [1] and 6.74 in the assay with Plasmodium falciparum [2]. Also, the results for the “Ratio IC50” value in the assay with Plasmodium falciparum [5] and with Plasmodium falciparum [6] were 6 and 2, respectively.
On to `O[C@@H](c1ccnc2ccccc12)[C@H]1C[C@@H]2CCN1C[C@@H]2/C=C/c1ccc(-c2ccccc2)cc1`, for which the negative-log IC50 (pIC50) in the assay on Plasmodium falciparum [1] is 7.05; in the assay on Plasmodium falciparum [2], 6.61. The “Ratio IC50” value in the assay on Plasmodium falciparum [7] amounted to 6.
In the case of `CCOC(=O)c1ccc(/C=C/[C@H]2CN3CC[C@H]2C[C@@H]3[C@@H](O)c2ccnc3ccccc23)cc1`, the pIC50 in the assay with Plasmodium falciparum [1] is 6.84; in the assay on Plasmodium falciparum [2], 6.58; in assay [3], 4.18; in assay [4], 4.30. Moreover, the “Ratio IC50” value with Plasmodium falciparum [7] was 6.
As for `O[C@@H](c1ccnc2ccccc12)[C@H]1C[C@@H]2CCN1C[C@@H]2/C=C/c1ccc(C(F)(F)F)cc1`, the pIC50 in the assay on Plasmodium falciparum [1] was 7.18; in the assay with Plasmodium falciparum [2], 6.01. Also, in the assay on Plasmodium falciparum [7], the “Ratio IC50” value was 6.
As to `O[C@@H](c1ccnc2ccccc12)[C@H]1C[C@@H]2CCN1C[C@@H]2/C=C/c1cccc(C(F)(F)F)c1`, the pIC50 in the assay with Plasmodium falciparum [1] was 6.81; with Plasmodium falciparum [2] it was 6.84; in assay [3], 4.20; in assay [4], 4.41. Further, the “Ratio IC50” value with Plasmodium falciparum [7] is recorded as 6.
As for `CCN(CC)CCCC(C)Nc1ccnc2cc(Cl)ccc12` (stereo not drawn) [CHLOROQUINE], the negative logarithm of the IC50 (pIC50) in assay [3] was 4.31; in assay [4], 4.48.
`C=C[C@H]1CN2CC[C@H]1C[C@H]2[C@H](O)c1ccnc2ccccc12` [CINCHONIDINE]: the pIC50 in the assay with Plasmodium falciparum [1] is 7.15; with Plasmodium falciparum [2], 6.68; in assay [3], 3.49; in assay [4] it was 3.85.
`C=C[C@H]1CN2CC[C@H]1C[C@@H]2[C@@H](O)c1ccnc2ccccc12` [CINCHONINE]: the pIC50 in the assay with Plasmodium falciparum [1] is 7.66; with Plasmodium falciparum [2] it was 7.09; in assay [3], 3.43; in assay [4], 3.77.
For the compound `C=C[C@H]1CN2CC[C@H]1C[C@@H]2[C@@H](O)c1ccnc2ccc(OC)cc12` [QUINIDINE], the pIC50 with Plasmodium falciparum [1] is 7.74; in the assay with Plasmodium falciparum [2] it was 7.05; in assay [3] it was 3.89; in assay [4] it was 4.64.
The corresponding values for `C=C[C@H]1CN2CC[C@H]1C[C@H]2[C@H](O)c1ccnc2ccc(OC)cc12` [QUININE] are 7.09, 6.49, 3.54 and 4.47.
